From patent EP4755892A1, “KINESIN KIF18A INHIBITOR AND USE THEREOF” (Shanghai Apeiron Therapeutics Company Limited, priority 2023, dated 2025)
Read-outs that look alike come from different tables or passages of the source.

Tests used:
[1] = molecular target: T1, Human KIF18A (amino acid sequence 1-417) (Homo sapiens, UniProt Q8NI77); assay: Enzymatic Activity Test (ADP-Glo, microtubule-stimulated KIF18A ATPase); format: biochemical; settings: 60 µg/mL microtubules, 25 µM ATP, 2.5 nM KIF18A protein, 120 min at ambient temperature, chemiluminescence; read-out: KIF 18A IC50
T1 construct: purchased Viva Biotech (Shanghai) Ltd
T1 sequence (Q8NI77 1-417): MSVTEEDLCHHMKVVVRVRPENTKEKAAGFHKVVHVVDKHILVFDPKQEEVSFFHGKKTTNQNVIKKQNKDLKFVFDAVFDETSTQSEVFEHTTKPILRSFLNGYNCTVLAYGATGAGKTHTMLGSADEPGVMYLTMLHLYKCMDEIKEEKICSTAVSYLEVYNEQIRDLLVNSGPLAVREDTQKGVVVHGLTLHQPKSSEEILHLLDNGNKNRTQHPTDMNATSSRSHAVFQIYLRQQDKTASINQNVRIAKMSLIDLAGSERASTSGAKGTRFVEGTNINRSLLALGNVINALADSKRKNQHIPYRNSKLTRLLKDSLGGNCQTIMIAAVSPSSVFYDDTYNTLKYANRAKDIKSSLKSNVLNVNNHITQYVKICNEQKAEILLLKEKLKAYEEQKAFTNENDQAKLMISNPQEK
Protocol: Assay 1: Enzymatic Activity Test
Materials: Human KIF18A (amino acid sequence 1-417) was purchased from Viva Biotech (Shanghai) Ltd.; the ADP-Glo™ protein kinase kit was acquired from Promega, USA; tubulin was sourced from Cytoskeleton, USA; and the 384-well assay plate and Envision multifunctional microplate reader were obtained from PerkinElmer, USA.
Enzymatic Activity Test: The compound powder was dissolved in DMSO to prepare a stock solution of 10 mM. Then gradient dilution was performed for the compounds in the microplate to achieve a final concentration of 0-10 µM. Then, 2.5 µL each of tubulin, compound, ATP, and KIF18A protein were added to the microplate in sequence for reaction at ambient temperature for 120 min. The final concentrations in the enzyme reaction were 60 µg/mL for microtubules, 25 µM for ATP, and 2.5 nM for KIF18A protein. After the enzyme reaction, 10 µL of ADP-GLO reaction reagent was added to each well and incubated at room temperature for 30 min. After that, 20 µL of detection reagent was added to each well and incubated at room temperature for 30 min in the dark. Finally, chemiluminescence detection was performed using the PerkinElmer Envision.

HT29 cells = assay: CyQuant Cell Proliferation Activity Test, HT29; format: cell-based; settings: HT29 cells 2000 per well, initial concentration 3000 nM, 3-fold dilution, 3 days, 0.2% DMSO, read-out: HT29_IC50 _nM
Protocol: Assay 3: CyQuant Cell Proliferation Activity Test
Materials and Cells: HT29 cells were purchased from Nanjing Cobioer Biosciences Co., Ltd.; RPMI-1640 medium, fetal bovine serum, Trypsin-EDTA (0.25%), 96-well plates, and CyQuant reagents were purchased from ThermoFisher (USA); DMSO was purchased from SIGMA (USA).
Cell Culture: HT29 cells were cultured with RPMI-1640 containing 10% fetal bovine serum under the condition of 37°C and 5% CO2. Only cells in the logarithmic growth phase could be used for the test.
Cell Proliferation Activity Test: CyQuant reagent was used to detect the proliferation inhibitory activity of compounds on HT29 cells. The cell density was adjusted, and 100 µL per well was inoculated into a 96-well plate (HT29 at 2000 cells per well), then incubated overnight at 37°C and 5% CO2. Add compounds of various target concentrations (initial concentration of 3000 nM, 3-fold dilution, 9 concentration gradients), and make the DMSO content 0.2%. The cell plate was incubated at 37°C in 5% CO2 for 3 days. CyQuant reagent was added and incubated for 1 h. The plates were read by Envision, and IC50 was calculated using XLFIT.

OVCAR3 cells = assay: Cell Proliferation Activity Test (CyQUANT Direct), OVCAR3; format: cell-based; settings: compound 0-10 µM, 3 days, 0.2% DMSO, CyQUANT fluorescence, read-out: OVCAR-3 _IC50_nM
Protocol: Assay 2: Cell Proliferation Activity Test
Materials and Cells: OVCAR3 cells were purchased from Nanjing Cobioer Biosciences Co., Ltd. RPMI-1640 medium, fetal bovine serum, and the CyQUANT Direct Cell Proliferation Assay kit were purchased from Thermo Fisher Scientific, USA; 96-well cell culture plates were sourced from Coming, USA.
Cell Culture: OVCAR3 cells were cultured with RPMI-1640 medium containing 10% fetal bovine serum and incubated in a 5% CO2 incubator at 37°C. Only cells in the logarithmic growth phase could be used for the test.
Cell Proliferation Activity Test:
OVCAR3 cells were inoculated into a 96-well cell culture plate at 90 µL per well and incubated overnight in a 5% CO2 incubator at 37°C. The compound powder was dissolved in DMSO to prepare a stock solution of 10 mM. Then gradient dilution was performed for the compounds in the microplate to achieve a final concentration of 0-10 µM. 10 µL of cell culture medium containing compounds was added to each well to make the final DMSO content 0.2%. The cell plates were incubated in a 5% CO2 incubator at 37°C for 3 days. 100 µL of CyQUANT detection reagent was added to each well, reacted at 37°C for 60 min, and fluorescence detection was performed using the PerkinElmer Envision.

SMILES	IC50 [1]	IC50 (HT29 cells)	IC50 (OVCAR3 cells)	IC50 (HT29 cells; Homo sapiens, HT-29, 72 h)	IC50 (OVCAR3 cells; Homo sapiens, OVCAR-3, 72 h)
Cc1cc2nc(n1)N1CCCC(C=CCC3CCN(CC3)c3cc(NS(=O)(=O)CCO)ccc3C(=O)N2)C1 (stereo not shown) [Example 1, 2-Hydroxy-N-(2^6-methyl-4-oxo-3-aza-2(2,4)-pyrimidin-1(1,3),6(1,4)-dipiperidin-5 (1,2)-benzeneheterocyclonon-8-en-5^4-yl)ethane-1-sulfonamide]	62 nM	17 nM	14 nM		
Cc1cc2nc(n1)N1CCCC(C=CCC3CCN(CC3)c3cc(NS(=O)(=O)CCO)ccc3C(=O)N2)C1 (stereo not shown) [Example 1A, 2-Hydroxy-N-((1^3S,E)-2^6-methyl-4-oxo-3-aza-2(2,4)-pyrimidin-1(1,3),6(1,4)-dipiperidin-5(1,2)-benzoaza-8-en-5^4-yl)ethane-1-sulfonamide]	> 3000 nM	> 3000 nM	> 3000 nM		
Cc1cc2nc(n1)N1CCCC(C=CCC3CCN(CC3)c3cc(NS(=O)(=O)CCO)ccc3C(=O)N2)C1 (stereo not shown) [Example 1B, 2-Hydroxy-N-((1^3R,E)-2^6-methyl-4-oxo-3-aza-2(2,4)-pyrimidin-1(1,3),6(1,4)-dipiperidin-5(1,2)-benzoaza-8-en-5^4-yl)ethane-1-sulfonamide]	34 nM	7 nM	6 nM		
Cc1cc2nc(n1)N1CCCC(C=CCC3CCN(CC3)c3cc(NS(=O)(=O)CCO)ccc3C(=O)N2)C1 (stereo not shown) [Example 1C, 2-Hydroxy-N-((1^3S,Z)-2^6-methyl-4-oxo-3-aza-2(2,4)-pyrimidin-1(1,3),6(1,4)-dipiperidin-5(1,2)-benzoaza-8-en-5^4-yl)ethane-1-sulfonamide]	36 nM	78 nM	61 nM		
Cc1cc2nc(n1)N1CCCC(C=CCC3CCN(CC3)c3cc(NS(=O)(=O)CCO)ccc3C(=O)N2)C1 (stereo not shown) [Example 1D, 2-Hydroxy-N-((1^3R,Z)-2^6-methyl-4-oxo-3-aza-2(2,4)-pyrimidin-1(1,3),6(1,4)-dipiperidin-5(1,2)-benzoaza-8-en-5^4-yl)ethane-1-sulfonamide]	246 nM	746 nM	506 nM		
Cc1cc2nc(n1)N1CCCC(C=CCC3CCN(CC3)c3cc(NS(=O)(=O)CCO)cnc3C(=O)N2)C1 (stereo not shown) [Example 2, (Z)-2-Hydroxy-N-(2^6-methyl-4-oxo-3-aza-2(2,4)-pyrimidin-5(2,3)-pyridin-1(1,3),6 (1,4)-dipiperidinylcyclononane-8-en-55-yl)ethane-1-sulfonamide]	8 nM			178 nM	74 nM
Cc1cc2nc(n1)N1CCCC(CCCC3CCN(CC3)c3cc(NS(=O)(=O)CCO)ccc3C(=O)N2)C1 (stereo not shown) [Example 3, 2-Hydroxy-N-(2^6-methyl-4-oxo-3-aza-2(2,4)-pyrimidin-1(1,3),6(1,4)-dipiperidin-5 (1,2)-benzeneheterocyclononane-5^4-yl)ethane-1-sulfonamide]	98 nM	68 nM	76 nM		
Cc1cc2nc(n1)N1CCCC(C=CC3CCCN(C3)c3cc(NS(=O)(=O)CCO)ccc3C(=O)N2)C1 (stereo not shown) [Example 8, (Z)-2-hydroxy-N-(1^6-methyl-7-oxo-8-aza-1(2,4)-pyrimidin-2(1,3),5(3,1)-dipiperidin-6(1,2)-benzeneheterocyclooct-3-en-6^5-yl)ethane-1-sulfonamide]	2300 nM				> 3000 nM
Cc1cc2nc(n1)N1CCCC(CCC3CCCN(C3)c3cc(NS(=O)(=O)CCO)ccc3C(=O)N2)C1 (stereo not shown) [Example 9, 2-Hydroxy-N-(1^6-methyl-7-oxo-8-aza-1(2,4)-pyrimidin-2(1,3),5(3,1)-dipiperidin-6 (1,2)-benzeneheterocyclooctan-6^5-yl)ethane-1-sulfonamide]	293 nM				548 nM
Cc1cc2nc(n1)N1CCCC(CCCC3CCCN(C3)c3cc(NS(=O)(=O)CCO)ccc3C(=O)N2)C1 (stereo not shown) [Example 11, 2-Hydroxy-N-(2^6-methyl-4-oxo-3-aza-2(2,4)-pyrimidin-1,6(1,3)-dipiperidin-5(1,2) -benzoylcyclononyl-5^4-yl)ethane-1-sulfonamide]	233 nM				150 nM
Cc1cc2nc(n1)N1CCOC(CCCC3CCN(CC3)c3cc(NS(=O)(=O)CCO)ccc3C(=O)N2)C1 (stereo not shown) [Example 26, 2-Hydroxy-N-((1^2S)-2^6-methyl-4-oxo-3-aza-1(4,2)-morpholin-2(2,4)-pyrimidin-6(1,4)-piperidin-5(1,2)-benzeneheterocyclononane-5^4-yl)ethane-1-sulfonamide]	15 nM				
Cc1cc2nc(n1)OCCOCCC1CCN(CC1)c1cc(NS(=O)(=O)CCO)ccc1C(=O)N2 [Example 29, 2-Hydroxy-N-(5^6-methyl-3-oxo-6,9-dioxa-4-aza-5(4,2)-pyrimidin-1(1,4)-piperidin-2(1,2)-benzeneheterocycloundecane-2^5)ethane-1-sulfonamide]	141 nM				

Other lines, results leading:

IC50 [1]	IC50 (HT29 cells)	IC50 (OVCAR3 cells)	IC50 (HT29 cells; Homo sapiens, HT-29, 72 h)	IC50 (OVCAR3 cells; Homo sapiens, OVCAR-3, 72 h)	SMILES
26 nM	1320 nM	1610 nM			Cc1cc2nc(n1)N1CCCC(CCCC3CCN(CC3)c3cc(NS(=O)(=O)CCO)ccc3C(=O)N2)C1 (stereo not shown) [Example 3A, 2-Hydroxy-N-((1^3R)-2^6-methyl-4-oxo-3-aza-2(2,4)-pyrimidin-1(1,3),6(1,4)-dipiperidin-5(1,2)-benzeneheterocyclononane-5^4-yl)ethane-1-sulfonamide]
67 nM	43 nM	36 nM			Cc1cc2nc(n1)N1CCCC(CCCC3CCN(CC3)c3cc(NS(=O)(=O)CCO)ccc3C(=O)N2)C1 (stereo not shown) [Example 3B, 2-Hydroxy-N-((1^3S)-2^6-methyl-4-oxo-3-aza-2(2,4)-pyrimidin-1(1,3),6(1,4)-dipiperidin-5(1,2)-benzeneheterocyclononane-5^4-yl)ethane-1-sulfonamide]
178 nM					Cc1cc2nc(n1)N1CCCC(COCC3CCN(CC3)c3cc(NS(=O)(=O)CCO)ccc3C(=O)N2)C1 (stereo not shown) [Example 28A, 2-Hydroxy-N-((1^3R)-2^6-methyl-4-oxo-8-oxa-3-aza-2(2,4)-pyrimidin-1(1,3),6(1,4)-dipiperidin-5(1,2)-benzeneheterocyclononane-5^4-yl)ethane-1-sulfonamide]
743 nM					Cc1cc2nc(n1)N1CCCC(COCC3CCN(CC3)c3cc(NS(=O)(=O)CCO)ccc3C(=O)N2)C1 (stereo not shown) [Example 28B, 2-Hydroxy-N-((1^3S)-2^6-methyl-4-oxo-8-oxa-3-aza-2(2,4)-pyrimidin-1(1,3),6(1,4)-dipiperidin-5(1,2)-benzeneheterocyclononane-5^4-yl)ethane-1-sulfonamide]
